{"source": "patent EP4613859A1", "about": "“TLR SIGNALING INHIBITORY PEPTIDE AND COMPOSITION INCLUDING SAME FOR PREVENTION OR TREATMENT OF INFLAMMATORY DISEASES” (Korea Institute of Science and Technology, priority 2022, dated 2025)", "key": {"human MYD88": {"test_system": "human MYD88", "experiment": "Phage display screening of TIR domain-derived peptide library against immobilized MyD88, NGS analysis after four rounds", "type": "binding", "conditions": "for NGS count: phages remaining after fourth round", "experimental": "(§1) First, vector cloning was performed by synthesizing a DNA sequence for expressing each peptide belonging to the library constructed in Example 1. Vector cloning was performed using p3/p8 phagemids.\n(§2) After the fourth round, the remaining phages were obtained by binding to the finally immobilized target proteins, and peptide sequences binding to the target and the relative distribution of each sequence were confirmed by performing NGS analysis on phagemids in the phages."}, "human MAL": {"test_system": "human MAL", "experiment": "Phage display screening of TIR domain-derived peptide library against immobilized MAL, NGS analysis after four rounds", "type": "binding", "conditions": "for NGS count: phages remaining after fourth round", "experimental": "as §1, §2"}, "[1]": {"conditions": "P8_MyD88: library displayed on P8 coat protein"}, "[2]": {"conditions": "P8_MyD88: relative distribution of the sequence in NGS"}, "[3]": {"conditions": "P3_MAL: library displayed on P3 coat protein"}, "[4]": {"conditions": "P3_MAL: relative distribution of the sequence in NGS"}, "[5]": {"conditions": "P8_MAL: library displayed on P8 coat protein"}, "[6]": {"conditions": "P8_MAL: relative distribution of the sequence in NGS"}, "[7]": {"conditions": "P3_MyD88: library displayed on P3 coat protein"}, "[8]": {"conditions": "P3_MyD88: relative distribution of the sequence in NGS"}}}
{"sequence": "GLSWGPYEWWMGLYDA", "values": [{"measurement": "NGS count", "setting": "human MYD88; [1]", "value": 1965}, {"measurement": "Population", "setting": "human MYD88; [2]", "value": 0.76, "unit": "%"}]}
{"sequence": "DPQDLDWFYERLVSLF", "values": [{"measurement": "NGS count", "setting": "human MYD88; [1]", "value": 54757}, {"measurement": "Population", "setting": "human MYD88; [2]", "value": 21.10, "unit": "%"}]}
{"sequence": "HHKGSYGEALAEHEKR", "values": [{"measurement": "NGS count", "setting": "human MAL; [3]", "value": 3056}, {"measurement": "Population", "setting": "human MAL; [4]", "value": 1.15, "unit": "%"}]}
{"sequence": "DWVWDYLLPNLEGPAG", "values": [{"measurement": "NGS count", "setting": "human MYD88; [1]", "value": 19394}, {"measurement": "Population", "setting": "human MYD88; [2]", "value": 7.47, "unit": "%"}]}
{"sequence": "YLLLSVFQTIFARRTE", "values": [{"measurement": "NGS count", "setting": "human MYD88; [1]", "value": 7165}, {"measurement": "Population", "setting": "human MYD88; [2]", "value": 2.76, "unit": "%"}]}
{"sequence": "TFLGHLYNALVQAGIH", "values": [{"measurement": "NGS count", "setting": "human MAL; [5]", "value": 24732}, {"measurement": "Population", "setting": "human MAL; [6]", "value": 7.64, "unit": "%"}]}
{"sequence": "AVDKETDKIQTPLKNA", "values": [{"measurement": "NGS count", "setting": "human MYD88; [7]", "value": 4790}, {"measurement": "Population", "setting": "human MYD88; [8]", "value": 1.39, "unit": "%"}]}
{"sequence": "AYANFRQGLLRLLELA", "values": [{"measurement": "NGS count", "setting": "human MAL; [5]", "value": 466}]}
{"sequence": "YAFTGHLHRYLVQRGV", "values": [{"measurement": "NGS count", "setting": "human MYD88; [7]", "value": 13420}, {"measurement": "Population", "setting": "human MYD88; [8]", "value": 3.91, "unit": "%"}, {"measurement": "NGS count", "setting": "human MAL; [3]", "value": 43764}, {"measurement": "Population", "setting": "human MAL; [4]", "value": 16.44, "unit": "%"}]}
{"sequence": "LQNQWKLALTKVANLV", "values": [{"measurement": "NGS count", "setting": "human MAL; [3]", "value": 2285}, {"measurement": "Population", "setting": "human MAL; [4]", "value": 0.86, "unit": "%"}]}
{"sequence": "YASSSWALDELLRILY", "values": [{"measurement": "NGS count", "setting": "human MYD88; [1]", "value": 2327}, {"measurement": "Population", "setting": "human MYD88; [2]", "value": 0.90, "unit": "%"}]}
{"sequence": "DFLNWFIALKSTVIEN", "values": [{"measurement": "NGS count", "setting": "human MAL; [5]", "value": 867}]}
{"sequence": "DSLFWDRLLYSLHVTE", "values": [{"measurement": "NGS count", "setting": "human MYD88; [1]", "value": 7586}, {"measurement": "Population", "setting": "human MYD88; [2]", "value": 2.92, "unit": "%"}]}
{"sequence": "DPQDLEWFYERLFSQM", "values": [{"measurement": "NGS count", "setting": "human MYD88; [1]", "value": 4488}, {"measurement": "Population", "setting": "human MYD88; [2]", "value": 1.73, "unit": "%"}]}
{"sequence": "HQAFWNRLWAKLKPPT", "values": [{"measurement": "NGS count", "setting": "human MAL; [3]", "value": 1932}, {"measurement": "Population", "setting": "human MAL; [4]", "value": 0.73, "unit": "%"}]}
{"sequence": "SELRVVDDGSVSPLEM", "values": [{"measurement": "NGS count", "setting": "human MYD88; [7]", "value": 4872}, {"measurement": "Population", "setting": "human MYD88; [8]", "value": 1.42, "unit": "%"}]}
{"sequence": "VQWDDPWFWDKLAYAM", "values": [{"measurement": "NGS count", "setting": "human MYD88; [1]", "value": 4902}, {"measurement": "Population", "setting": "human MYD88; [2]", "value": 1.89, "unit": "%"}]}
{"sequence": "YYLDPSHLRKQSGEFG", "values": [{"measurement": "NGS count", "setting": "human MYD88; [7]", "value": 2538}, {"measurement": "Population", "setting": "human MYD88; [8]", "value": 0.74, "unit": "%"}]}
{"sequence": "LVAHEISKKMKIFATI", "values": [{"measurement": "NGS count", "setting": "human MYD88; [7]", "value": 17452}, {"measurement": "Population", "setting": "human MYD88; [8]", "value": 5.08, "unit": "%"}, {"measurement": "NGS count", "setting": "human MAL; [3]", "value": 1671}, {"measurement": "Population", "setting": "human MAL; [4]", "value": 0.63, "unit": "%"}]}
{"sequence": "AWALHQLQQIINWHET", "values": [{"measurement": "NGS count", "setting": "human MAL; [5]", "value": 232}, {"measurement": "Population", "setting": "human MAL; [6]", "value": 0.07, "unit": "%"}]}
{"sequence": "TSHLHHALRLNKIETF", "values": [{"measurement": "NGS count", "setting": "human MYD88; [7]", "value": 2076}, {"measurement": "Population", "setting": "human MYD88; [8]", "value": 0.60, "unit": "%"}]}
{"sequence": "SEFIQKIILWMNPKIV", "values": [{"measurement": "NGS count", "setting": "human MAL; [5]", "value": 4458}, {"measurement": "Population", "setting": "human MAL; [6]", "value": 1.38, "unit": "%"}]}
{"sequence": "WFMMKFRTVLDHVNDV", "values": [{"measurement": "NGS count", "setting": "human MAL; [5]", "value": 2269}]}
{"sequence": "DWFLSKLSQHILKREK", "values": [{"measurement": "NGS count", "setting": "human MAL; [3]", "value": 4580}, {"measurement": "Population", "setting": "human MAL; [4]", "value": 1.72, "unit": "%"}]}
{"sequence": "RNFVAYLFQALANKGI", "values": [{"measurement": "NGS count", "setting": "human MAL; [5]", "value": 27950}, {"measurement": "Population", "setting": "human MAL; [6]", "value": 8.63, "unit": "%"}]}
{"sequence": "SLRKNLVSNLIEEFKR", "values": [{"measurement": "NGS count", "setting": "human MAL; [3]", "value": 3569}, {"measurement": "Population", "setting": "human MAL; [4]", "value": 1.34, "unit": "%"}]}
{"sequence": "AFLYTFLINLTHPTNF", "values": [{"measurement": "NGS count", "setting": "human MAL; [5]", "value": 51063}, {"measurement": "Population", "setting": "human MAL; [6]", "value": 18.86, "unit": "%"}]}
{"sequence": "VEPTQVRKQSGAVENA", "values": [{"measurement": "NGS count", "setting": "human MAL; [3]", "value": 2283}, {"measurement": "Population", "setting": "human MAL; [4]", "value": 0.86, "unit": "%"}]}
{"sequence": "YASYDDNDYYWVTHVLLRHL", "values": [{"measurement": "NGS count", "setting": "human MYD88; [1]", "value": 5893}, {"measurement": "Population", "setting": "human MYD88; [2]", "value": 2.66, "unit": "%"}]}
{"sequence": "LKWGDPYFWSKLRYAM", "values": [{"measurement": "NGS count", "setting": "human MYD88; [7]", "value": 8310}, {"measurement": "Population", "setting": "human MYD88; [8]", "value": 2.42, "unit": "%"}, {"measurement": "NGS count", "setting": "human MAL; [3]", "value": 5128}, {"measurement": "Population", "setting": "human MAL; [4]", "value": 1.93, "unit": "%"}]}
{"sequence": "LKVESWRQALEKAGKL", "values": [{"measurement": "NGS count", "setting": "human MYD88; [7]", "value": 16847}, {"measurement": "Population", "setting": "human MYD88; [8]", "value": 4.91, "unit": "%"}, {"measurement": "NGS count", "setting": "human MAL; [3]", "value": 5180}, {"measurement": "Population", "setting": "human MAL; [4]", "value": 2.32, "unit": "%"}]}
{"sequence": "WFLFTVRSAIYAMSPA", "values": [{"measurement": "NGS count", "setting": "human MAL; [5]", "value": 3156}, {"measurement": "Population", "setting": "human MAL; [6]", "value": 0.97, "unit": "%"}]}
{"sequence": "SFFWNKLRYHLPAPQH", "values": [{"measurement": "NGS count", "setting": "human MAL; [3]", "value": 2297}, {"measurement": "Population", "setting": "human MAL; [4]", "value": 0.86, "unit": "%"}]}
{"sequence": "YFLHFLLFSRPETEYI", "values": [{"measurement": "NGS count", "setting": "human MAL; [5]", "value": 17198}, {"measurement": "Population", "setting": "human MAL; [6]", "value": 5.31, "unit": "%"}]}
{"sequence": "MFGGDTFHDFLDLISM", "values": [{"measurement": "NGS count", "setting": "human MYD88; [1]", "value": 1489}, {"measurement": "Population", "setting": "human MYD88; [2]", "value": 0.57, "unit": "%"}]}
{"sequence": "SAAYDDFWDRLIRMIE", "values": [{"measurement": "NGS count", "setting": "human MYD88; [1]", "value": 5335}, {"measurement": "Population", "setting": "human MYD88; [2]", "value": 2.06, "unit": "%"}]}
{"sequence": "NQWRNALTAAANLSGW", "values": [{"measurement": "NGS count", "setting": "human MYD88; [7]", "value": 28662}, {"measurement": "Population", "setting": "human MYD88; [8]", "value": 8.35, "unit": "%"}, {"measurement": "NGS count", "setting": "human MAL; [3]", "value": 25831}, {"measurement": "Population", "setting": "human MAL; [4]", "value": 9.71, "unit": "%"}, {"measurement": "NGS count", "setting": "human MAL; [5]", "value": 848}]}
{"sequence": "KLFWEKFKEFFLPSLSR", "values": [{"measurement": "NGS count", "setting": "human MAL; [5]", "value": 4888}, {"measurement": "Population", "setting": "human MAL; [6]", "value": 1.51, "unit": "%"}]}
{"sequence": "RGFLSHLRHHLQAKDH", "values": [{"measurement": "NGS count", "setting": "human MAL; [3]", "value": 15065}, {"measurement": "Population", "setting": "human MAL; [4]", "value": 5.66, "unit": "%"}]}
{"sequence": "YTALTNSGFHTFRDND", "values": [{"measurement": "NGS count", "setting": "human MYD88; [7]", "value": 17600}, {"measurement": "Population", "setting": "human MYD88; [8]", "value": 5.12, "unit": "%"}]}
{"sequence": "SLLYDHLRWLGIRAFL", "values": [{"measurement": "NGS count", "setting": "human MAL; [5]", "value": 2576}, {"measurement": "Population", "setting": "human MAL; [6]", "value": 0.80, "unit": "%"}]}
